Measured values: PMC6722685, “A Novel Marine Natural Product Derived Pyrroloiminoquinone with Potent Activity against Skin Cancer Cells” (Marine Drugs, 2019)

Legend:
SCC13 cells [1] = experiment: MTT assay for cell viability, SCC13 cells; format: cell-based, human; conditions: for IC50 / IC90: Homo sapiens, SCC-13, MTT, 24 h treatment, mean ± SD, n = 4; for IC50: read-out: SSC13 Cells IC50 ± SD; for IC90: read-out: SSC13 Cells IC90 ± SD
Procedure: (§1) We first investigated the dose-dependent effects of all five compounds on the cell viability of human skin cancer cell line, SCC13 as well as an immortalized human skin keratinocyte cell line, HaCaT through MTT assay. […] IC50 and IC90 values for these compounds against these two cell lines were calculated (Table 1). There were statistically significant differences between these two values with p < 0.05.
(§2) All cell lines were seeded on a 96-well cell culture plate at 2 × 10^5 cells per well. After 24 h, the cells were treated with increasing doses of the compounds (0, 0.0625 μM, 0.125 μM, 0.25 μM, 0.5 μM, 1.0 μM). After incubation for 24 h, the medium was removed and 100 μL of MTT solution (500 µg/mL) in PBS was added and kept for 4 h at 37 °C. The formazan crystals thus formed were dissolved in DMSO and the optical density (OD) was measured at 570 nm using a microplate reader (BioTek Synergy H1 Plate Reader, Winooski, VT, USA).

HaCaT cells = experiment: MTT assay for cell viability, HaCaT cells; format: cell-based; conditions: 24 h treatment, normal human keratinocytes, mean ± SD, n = 4
Procedure: as §1, §2

cleaved-PARP = experiment: Western blot, cleaved-PARP in SCC13 cells; format: cell-based, human; conditions: SCC13 cells, 0.25, 0.5 and 1 µM, 24 h
Procedure: (§3) Figure 5 Effect of C278 on apoptotic and autophagy related proteins in SCC13 cells. SCC13 cells were treated with 0.1% DMSO and 0.25, 0.5 and 1 µM of C278 for 24 h. The cells were then lysed in cell lysis buffer and protein was estimated. Western blot was performed to estimate the level of expression for human Bcl2, Cleaved-PARP and Beclin-1. The expression of these proteins was normalized using β-Actin as a loading control. Figures are representatives of 2 independent experiments. Bands were analyzed densiometrically and bar graphs expressing arbitrary units are presented adjacent to the western blot. Error bar represents mean ± SD, n = 4. * p < 0.01. ** p < 0.001.
(§4) SCC13 cells (1–2 × 10^6) cultured in 6-well culture plate were treated with different concentrations of C278 for 24 h. Cells were then lysed in cell lysis buffer containing protease inhibitor cocktail and the protein concentrations in the cleared supernatants were estimated using the bicinchoninic acid (BCA) protein assay. The cell lysates were resolved by 10% SDS-PAGE and transferred to nitrocellulose membrane (BioRad, Hercules, CA, USA). […] Membranes were then washed three times with wash buffer (TBS containing 0.5% Tween), and then incubated with horseradish peroxidase (HRP)-conjugated secondary Ab and detected by enhanced chemiluminescence (ECL) detection system according to the manufacturer’s instructions.

SCC13 cells [2] = experiment: Cell invasion (trans-well, Matrigel) assay; format: cell-based, human; conditions: 24 h, control group 56.50 ± 4.95%
Procedure: (§5) Figure 4 Effect of C278 on migration and invasion ability of the SCC13 cells. (A) SCC13 cells were allowed to proliferate in a 24-well plate until reaching confluency. A scratch was made on the plate using a pipette tip. The unattached cells were washed off. The cells were then treated with either 0.1% DMSO or two doses of C278 (0.5 µM and 1.0 µM) and incubated for 24 h. The images were captured at the time of drug treatment and after 24 h of incubation through a light microscope. (Scale bar: 200 µM). (B) Percent wound closure was measured using Image J software and plotted in bar graphs. Results are combined from two independent experiments and presented as mean ± SD; n = 4. (C) SCC13 cells were seeded in the invasion chambers and incubated for 4 h. Now the cells were treated either with 0.1% DMSO or two doses of C278 (0.5 µM and 1.0 µM) for 24 h. The cells from the upper surface of the membrane were removed with cotton swabs. The invaded cells, which were in the lower surface of the membrane, were stained with crystal violet. Images of the invaded cells were captured using a light microscope. (D) The average number of cells invaded was counted in each group and plotted in bar graphs. Results are presented as mean ± SD; n = 4. * p < 0.01, ** p < 0.001, *** p < 0.0001. […]

SCC13 cells [3] = experiment: Wound healing (cell migration) assay; format: cell-based, human; conditions: 24 h, control group 93.37 ± 3.35
Procedure: as §5, with “graphs.” for “graphs. Results are presented as mean ± SD; n = 4. * p < 0.01, ** p < 0.001, *** p < 0.0001.”
SCC13 cells were seeded on 24-well cell culture plate at a density of 2 × 10^5 cells/well and cultured until cells were confluent. […] Percent change in wound area was measured by Image J software.

[4] = test system: proliferating cell nuclear antigen (PCNA); experiment: Western blot, PCNA expression in SCC13 cells; format: cell-based, human; conditions: 24 h, dose-dependent
Procedure: Figure 3 Effects of C278 on the viability of SCC13 and HaCaT cells (A) SCC13 cells were treated with increasing concentrations of C278 at 24 h, and the percentage cell viability was estimated. Results are combined from two independent experiments and are presented as mean ± SD; n = 4. (B) HaCaT cells were treated with increasing concentrations of C278 at 24 h, and the percentage cell viability was estimated. Results are combined from two independent experiments and are presented as mean ± SD; n = 4. (C) Expression of PCNA was measured through western blot. The expression of this protein was normalized using β-Actin as a loading control. Figures are representatives of 2 independent experiments. (D) Densiometric analysis of bands was performed and the bar graphs expressing arbitrary units are presented. Error bar represents mean ± SD, n = 4. * p < 0.01, ** p < 0.001, *** p < 0.0001.
SCC13 cells (1–2 × 10^6) cultured in 6-well culture plate were treated with different concentrations of C278 for 24 h. […] Membranes were then washed three times with wash buffer (TBS containing 0.5% Tween), and then incubated with horseradish peroxidase (HRP)-conjugated secondary Ab and detected by enhanced chemiluminescence (ECL) detection system according to the manufacturer’s instructions.

Bcl-2 = experiment: Western blot, Bcl-2 expression in SCC13 cells; format: cell-based, human; conditions: SCC13 cells, 0.25, 0.5 and 1 µM, 24 h
Procedure: as §3, §4

beclin-1 = experiment: Western blot, beclin-1 expression in SCC13 cells; format: cell-based, human; conditions: SCC13 cells, 0.25, 0.5 and 1 µM, 24 h
Procedure: as §3, §4

SMILES | IC50 (SCC13 cells [1]) [nM] | IC90 (SCC13 cells [1]) [nM] | IC50 (HaCaT cells) [nM] | IC90 (HaCaT cells) [nM] | production of cleaved-PARP (cleaved-PARP) | number of invasive cells (SCC13 cells [2]; 0.5 μM) [%] | number of invasive cells (SCC13 cells [2]; 1.0 μM) [%] | Percent wound closure (SCC13 cells [3]; 0.5 μM) [%] | Percent wound closure (SCC13 cells [3]; 1.0 μM) [%] | expression of PCNA [4] | selectivity for killing SCC13 cells compared to HaCaT cells (SCC13 cells [1]; SCC13 vs HaCaT) | expression of Bcl-2 protein (Bcl-2) | expression of beclin-1 (beclin-1)
Cc1ccc(S(=O)(=O)n2cc3c4c2C(=O)C(NCc2ccccc2)=CC4=NCC3)cc1 [Compound C11] | 510 ± 30 | 920 ± 60 | 480 ± 10 | 870 ± 30 | – | – | – | – | – | – | – | – | –
Cc1ccc(S(=O)(=O)n2cc3c4c2C(=O)C(NCCc2ccc5c(c2)OCO5)=CC4=NCC3)cc1 [Compound C15] | 5310 ± 190 | 9560 ± 350 | 730 ± 90 | 1320 ± 160 | – | – | – | – | – | – | – | – | –
Cc1ccc(S(=O)(=O)n2cc3c4c2C(=O)C(NCc2ccco2)=CC4=NCC3)cc1 [Compound C45] | 2580 ± 230 | 4650 ± 420 | 5240 ± 80 | 9430 ± 150 | – | – | – | – | – | – | – | – | –
O=C1C(NCCc2ccc3c(c2)OCO3)=CC2=NCCc3c[nH]c1c32 [Compound C238] | 820 ± 20 | 1480 ± 40 | 2350 ± 210 | 4230 ± 360 | – | – | – | – | – | – | – | – | –
O=C1C(NCc2cccs2)=CC2=NCCc3c[nH]c1c32 [Compound C278] | 500 ± 110 | 900 ± 210 | 1150 ± 210 | 2070 ± 370 | increased in a dose-dependent manner | 32.00 ± 4.24 | 19.50 ± 4.95 | 69.06 ± 2.91 | 39.53 ± 2.17 | downregulation | two-fold | significantly downregulated | increased in a dose-dependent manner
